# Measurements reported in PMC12416277, “Phytochemical alkaloids orchestrate immunometabolism against viral infections” (National Science Review, 2025).
# Where two headings read alike, the source gives them in different places.
# Tests used:
# [1] = tested on: EMCV; assay: microbe, parasite or virus in culture; format: cell-based, encephalomyocarditis virus (EMCV); conditions: Cardiovirus A, L929
# [2] = tested on: VSV; format: cell-based, vesicular stomatitis virus (VSV)
# [3] = tested on: EMCV; format: cell-based, encephalomyocarditis virus (EMCV)
# [4] = tested on: VSV; format: cell-based, vesicular stomatitis virus (VSV); remark: listed apart in the source
# [5] = tested on: EMCV; format: cell-based, encephalomyocarditis virus (EMCV); remark: listed apart in the source
# [6] = tested on: VSV; format: cell-based, vesicular stomatitis virus (VSV); remark: listed apart in the source
# [7] = tested on: cholesterol metabolism genes; format: cell-based, human
# [8] = tested on: A549 cells; assay: Confocal analysis of filipin-stained cholesterol distribution in A549 cells; format: cell-based
# [9] = tested on: VSV; format: cell-based, vesicular stomatitis virus (VSV); remark: listed apart in the source
# [10] = tested on: H1N1; assay: Antiviral effect in normal/serum-free medium during H1N1 infection of A549 cells; format: cell-based, influenza virus A (H1N1); conditions: serum-free conditions
# [11] = tested on: IFNB1, IFIT1, IFIT2 and IFI44 mRNA; assay: IFNB1 and ISG mRNA expression in A549, PBMC and MEF cells (qRT-PCR); format: cell-based; conditions: A549, PBMC, MEF cells
# [12] = tested on: STAT1; assay: Confocal analysis of nuclear localization of STAT1 in A549 cells; format: cell-based
# [13] = tested on: STING; assay: DMXAA-stimulated WT or Sting-/- MEF cells, Ifnb1, Ifi44, Ccl5, Cxcl10 mRNA; format: cell-based, mouse
# [14] = tested on: sgRNA-Npc1 cells; format: cell-based, mouse
# [15] = tested on: NPC1/STING axis; assay: Ifit1 and Ifit2 mRNA in sgRNA-EV, sgRNA Npc1 and Flag-NPC1 cells stimulated with DMXAA and Tet; format: cell-based, mouse; conditions: sgRNA-EV vs NPC1-deficient vs Flag-NPC1 cells, DMXAA
# Description: (§1) Figure 5. The dual functions of Tet to resist viral entry and activate antiviral immunity through the NPC1/STING axis. (a, b) Confocal analysis of Bio-Tet with CD63 (a) or NPC1 (b) in A549 cells, scale bar: 10 μm. (c) Binding affinity analysis of NPC1 with itraconazole, U18666A, or Tet was determined by SPR. (d, e) CETSA (d) and DARTS (e) analysis of NPC1 with Tet in HepG2 cells. (f) Streptavidin-covered beads with biotin, Bio-Tet, Bio-Tet + Tet were incubated with cell lysates. As indicated, the levels of NPC1 protein in bound proteins (IP) and total proteins (Input) were determined using immunoblotting. (g) Viral mRNA expression in siNPC1-transfected cells treated with Tet. (h) Viral mRNA expression in sgRNA-EV, sgRNA Npc1, and sgRNA Npc1 cells transfected with Flag-NPC1 treated with Tet. (i) Ifit1 and Ifit2 mRNA expression in sgRNA-EV, sgRNA Npc1, and sgRNA Npc1 cells transfected with Flag-NPC1 stimulated with DMXAA and Tet. (j) Schematic of LysoIP-DEG. (k) Immunoblotting analysis of the indicated proteins in LysoIP-DEG in Tet-treated HepG2 cells. (l) Schematic model of NPC1/STING axis-mediated viral inhibition by Tet. The schematic diagram (j) and model (l) were created by Figdraw. For a, b, g, h, i, n = 3 independent experiments. All data are presented as mean ± SD. P values were calculated using one-way ANOVA (g, h, i). NS, not significant. […]
# [16] = tested on: NPC1 and STING in lysosomal microdomains; assay: Lysosome immunoprecipitation with density gradient ultracentrifugation (LysoIP-DEG) in HepG2 cells; format: cell-based
# Description: as §1, with “The schematic diagram (j) and model (l) were created by Figdraw. For a, b, g, h, i, n = 3 independent experiments. All data are presented as mean ± SD.” left out, “i).” for “i). NS, not significant.”
# The LysoIP-DEG was performed as previously described with minor modifications. […] The collected samples were dissolved in 50 µL 2 × SDS loading buffer and then assessed through western blotting analysis.
# [17] = cited from earlier work
structure (smiles),measurement,setting,value
"COc1ccc2cc1Oc1ccc(cc1)C[C@H]1c3cc(c(OC)cc3CCN1C)Oc1c(OC)c(OC)cc3c1[C@H](C2)N(C)CC3 [Tet, tetrandrine]",EC50,[1],989 nM
same,VSV infection,[2],effectively suppressed
same,EMCV infection,[3],effectively suppressed
same,VSV attachment,[4],without affecting virus attachment
same,VSV infection during entry or post-entry stages,[4],inhibited
same,VSV-eGFP entry into lysosomes,[4],blocked
same,EMCV attachment,[5],without affecting virus attachment
same,EMCV infection during entry or post-entry stages,[5],inhibited
same,VSV replication,[6],suppressed
same,antiviral efficacy,[6],remained unchanged
same,"expression of genes involved in cholesterol synthesis (SREBF2, HMGCR, SQLE, SREBP1C, DHCR24, DHCR7, FASN) and absorption (LDLR)",[7],increased expression
same,"expression of genes related to cholesterol transport (ABCA1, ABCG1), oxidation (CYP27A1, CYP46A1) or esterification (ACAT1, ACAT2)",[7],did not affect the expression
same,cholesterol distribution / lysosomal cholesterol accumulation,[8],shifting it from the plasma membrane to endosomal and lysosomal compartments
same,antiviral effect on VSV entry,[9]; MβCD pretreatment (cholesterol depleted),abolished
same,antiviral effect on VSV entry,[9]; cholesterol supplementation using MβCD-cholesterol,restored inhibition
same,antiviral effect on H1N1 entry,[10],diminished
same,IFNB1 and ISGs mRNA,[11],upregulation
same,STAT1 nucleus translocation,[12],promoted STAT1 nucleus translocation
same,"Ifnb1, Ifi44, Ccl5 and Cxcl10 gene expression",[13]; DMXAA treated Sting-/- MEF cells,abolished
same,"Ifnb1, Ifi44, Ccl5 and Cxcl10 gene expression",[13]; DMXAA treated WT MEF cells,increased
same,antiviral effects,[14],attenuated but restored with Flag-tagged NPC1 reintroduction
same,Ifit1 and Ifit2 expression,[15],"observed in sgRNA-EV cells, but this effect was abolished in NPC1-deficient cells and restored in sgRNA-Npc1 cells transfected with Flag-NPC1"
same,NPC1 and STING expression in lysosomal microdomains,[16],enhanced NPC1 and STING expression in lysosomal microdomains after 6 hours
same,systemic clearance,[17],low
same,volume of distribution,[17],high
